According to US9492471B2, “Methods of treating a disease or disorder associated with Bruton'S Tyrosine Kinase” (Celgene Avilomics Research, Inc., priority 2013, dated 2016):
Read-outs that look alike come from different tables or passages of the source.

What was measured:
Test in all cases: HotSpot kinase profiling
Format in all cases: biochemical
[1] = target: T1, FGR (Homo sapiens, UniProt P09769)
T1 construct: purchased Reaction Biology Corp
How it was run: (§1)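 Radio-isotope P81 filtration format. Substrate + required cofactors in reaction buffer, kinase added, 2 h RT. Stop, wash with 0.1% phosphoric acid, detect. % inhibition vs DMSO; mean of duplicates where repeated.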

[2] = target: T2, PKG1a (Homo sapiens, UniProt Q13976)
T2 construct: purchased Reaction Biology Corp
T2 sequence (Q13976 1-671): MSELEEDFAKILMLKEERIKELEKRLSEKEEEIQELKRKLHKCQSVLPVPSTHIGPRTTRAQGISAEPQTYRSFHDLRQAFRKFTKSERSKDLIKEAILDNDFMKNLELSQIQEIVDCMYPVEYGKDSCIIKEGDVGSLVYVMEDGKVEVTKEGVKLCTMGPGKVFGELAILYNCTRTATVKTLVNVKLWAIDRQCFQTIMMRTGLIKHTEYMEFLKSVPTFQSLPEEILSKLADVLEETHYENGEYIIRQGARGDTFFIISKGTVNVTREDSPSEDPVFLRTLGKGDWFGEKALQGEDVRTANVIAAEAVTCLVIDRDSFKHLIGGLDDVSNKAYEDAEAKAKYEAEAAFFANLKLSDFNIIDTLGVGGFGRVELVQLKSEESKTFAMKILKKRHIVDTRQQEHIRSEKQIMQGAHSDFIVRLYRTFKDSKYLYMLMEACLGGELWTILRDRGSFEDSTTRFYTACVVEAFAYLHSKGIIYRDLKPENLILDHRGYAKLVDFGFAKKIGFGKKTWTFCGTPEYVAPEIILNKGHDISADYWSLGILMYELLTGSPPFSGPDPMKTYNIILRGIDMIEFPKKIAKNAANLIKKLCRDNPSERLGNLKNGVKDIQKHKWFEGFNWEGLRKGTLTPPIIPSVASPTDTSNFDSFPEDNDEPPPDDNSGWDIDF
How it was run: as §1

[3] = target: T3, CDK2/cyclin A (Homo sapiens, UniProt P24941)
T3 construct: purchased Reaction Biology Corp
How it was run: as §1

[4] = target: T4, CAMK2g (Homo sapiens, UniProt Q13555)
T4 construct: purchased Reaction Biology Corp
T4 sequence (Q13555 whole entry): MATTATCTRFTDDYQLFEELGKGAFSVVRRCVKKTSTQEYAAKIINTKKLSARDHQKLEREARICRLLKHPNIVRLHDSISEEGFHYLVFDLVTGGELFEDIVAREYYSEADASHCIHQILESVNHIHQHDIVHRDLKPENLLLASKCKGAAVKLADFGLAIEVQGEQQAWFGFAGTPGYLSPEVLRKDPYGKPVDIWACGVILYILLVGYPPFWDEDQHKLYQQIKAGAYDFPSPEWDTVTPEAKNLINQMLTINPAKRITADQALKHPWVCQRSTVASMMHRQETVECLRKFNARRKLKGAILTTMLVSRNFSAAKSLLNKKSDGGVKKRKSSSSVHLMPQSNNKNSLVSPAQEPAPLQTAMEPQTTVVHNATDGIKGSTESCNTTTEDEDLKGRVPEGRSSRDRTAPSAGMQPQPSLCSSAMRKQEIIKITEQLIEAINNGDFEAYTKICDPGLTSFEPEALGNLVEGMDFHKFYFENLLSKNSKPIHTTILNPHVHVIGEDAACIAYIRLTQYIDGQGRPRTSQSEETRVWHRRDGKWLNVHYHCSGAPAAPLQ
How it was run: as §1

[5] = target: T5, NEK5 (Homo sapiens, UniProt Q6P3R8)
T5 construct: purchased Reaction Biology Corp
T5 sequence (Q6P3R8 1-708): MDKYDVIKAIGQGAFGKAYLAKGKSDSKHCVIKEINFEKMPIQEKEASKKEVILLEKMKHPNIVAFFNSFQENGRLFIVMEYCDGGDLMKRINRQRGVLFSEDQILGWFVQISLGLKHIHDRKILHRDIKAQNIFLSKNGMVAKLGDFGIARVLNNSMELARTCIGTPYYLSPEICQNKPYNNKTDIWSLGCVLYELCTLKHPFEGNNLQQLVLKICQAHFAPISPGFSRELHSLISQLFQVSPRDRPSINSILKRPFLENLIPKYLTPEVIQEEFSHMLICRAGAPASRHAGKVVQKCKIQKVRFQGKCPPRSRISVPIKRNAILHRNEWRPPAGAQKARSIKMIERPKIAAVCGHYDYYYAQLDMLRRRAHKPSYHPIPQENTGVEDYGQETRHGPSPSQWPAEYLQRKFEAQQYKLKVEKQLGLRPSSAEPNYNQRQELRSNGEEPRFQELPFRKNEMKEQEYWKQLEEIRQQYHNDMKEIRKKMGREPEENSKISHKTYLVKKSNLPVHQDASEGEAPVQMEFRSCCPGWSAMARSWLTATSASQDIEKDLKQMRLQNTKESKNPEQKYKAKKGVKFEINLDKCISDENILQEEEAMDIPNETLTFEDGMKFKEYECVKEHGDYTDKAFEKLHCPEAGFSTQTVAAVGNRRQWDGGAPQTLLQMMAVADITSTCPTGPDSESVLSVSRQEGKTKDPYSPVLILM
How it was run: as §1

[6] = target: T6, MKK6 (Homo sapiens, UniProt P52564)
T6 construct: purchased Reaction Biology Corp
T6 sequence (P52564 1-334): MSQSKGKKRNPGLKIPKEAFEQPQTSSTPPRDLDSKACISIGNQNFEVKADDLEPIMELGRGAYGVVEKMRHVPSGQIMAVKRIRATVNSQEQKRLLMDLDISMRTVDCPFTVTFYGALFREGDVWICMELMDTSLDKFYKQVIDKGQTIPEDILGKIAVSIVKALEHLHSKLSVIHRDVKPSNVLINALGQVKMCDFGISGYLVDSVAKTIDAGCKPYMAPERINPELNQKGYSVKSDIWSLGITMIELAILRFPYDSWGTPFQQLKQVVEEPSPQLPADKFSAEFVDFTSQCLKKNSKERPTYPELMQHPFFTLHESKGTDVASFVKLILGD
How it was run: as §1

[7] = target: T7, GRK4 (Homo sapiens, UniProt P32298)
T7 construct: purchased Reaction Biology Corp
T7 sequence (P32298 whole entry): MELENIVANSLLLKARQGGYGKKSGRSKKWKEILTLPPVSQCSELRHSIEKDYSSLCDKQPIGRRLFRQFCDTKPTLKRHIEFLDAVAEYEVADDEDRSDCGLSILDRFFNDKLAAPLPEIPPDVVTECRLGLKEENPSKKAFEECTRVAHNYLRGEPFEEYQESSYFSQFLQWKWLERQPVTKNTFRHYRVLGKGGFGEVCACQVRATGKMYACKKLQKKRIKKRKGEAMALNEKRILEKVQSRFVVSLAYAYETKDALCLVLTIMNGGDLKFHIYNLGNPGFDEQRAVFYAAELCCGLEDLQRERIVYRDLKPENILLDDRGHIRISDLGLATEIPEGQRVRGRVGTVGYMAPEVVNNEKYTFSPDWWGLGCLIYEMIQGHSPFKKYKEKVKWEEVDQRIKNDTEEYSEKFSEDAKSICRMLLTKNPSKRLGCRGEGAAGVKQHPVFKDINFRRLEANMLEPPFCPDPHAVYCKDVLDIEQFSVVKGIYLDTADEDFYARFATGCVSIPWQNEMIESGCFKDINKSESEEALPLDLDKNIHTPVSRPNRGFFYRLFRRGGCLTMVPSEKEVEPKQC
How it was run: as §1

[8] = target: T8, CDK1/cyclin E (Homo sapiens, UniProt P06493)
T8 construct: purchased Reaction Biology Corp
T8 sequence (P06493 whole entry): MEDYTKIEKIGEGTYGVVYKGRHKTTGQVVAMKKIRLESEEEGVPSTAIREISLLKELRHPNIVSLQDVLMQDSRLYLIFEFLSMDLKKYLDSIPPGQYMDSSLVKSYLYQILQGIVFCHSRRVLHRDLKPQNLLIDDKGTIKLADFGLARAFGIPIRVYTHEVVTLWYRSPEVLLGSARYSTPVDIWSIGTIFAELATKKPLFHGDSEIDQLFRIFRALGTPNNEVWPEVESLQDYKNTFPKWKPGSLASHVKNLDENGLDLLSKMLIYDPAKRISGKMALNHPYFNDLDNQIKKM
T8 sequence (P24864 whole entry partner): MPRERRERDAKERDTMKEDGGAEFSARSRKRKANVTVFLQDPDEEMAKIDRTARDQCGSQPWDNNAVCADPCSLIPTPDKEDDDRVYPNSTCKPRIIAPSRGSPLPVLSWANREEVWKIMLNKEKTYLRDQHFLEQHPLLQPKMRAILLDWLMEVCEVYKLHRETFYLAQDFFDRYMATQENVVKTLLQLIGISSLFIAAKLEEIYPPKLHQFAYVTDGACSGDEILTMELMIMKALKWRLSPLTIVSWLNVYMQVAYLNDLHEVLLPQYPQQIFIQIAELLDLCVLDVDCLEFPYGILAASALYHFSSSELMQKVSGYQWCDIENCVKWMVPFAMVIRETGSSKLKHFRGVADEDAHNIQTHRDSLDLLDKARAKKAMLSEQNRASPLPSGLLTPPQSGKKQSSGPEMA
How it was run: as §1

[9] = target: T9, ALK2/ACVR1 (Homo sapiens, UniProt Q04771)
T9 construct: purchased Reaction Biology Corp
T9 sequence (Q04771 21-509): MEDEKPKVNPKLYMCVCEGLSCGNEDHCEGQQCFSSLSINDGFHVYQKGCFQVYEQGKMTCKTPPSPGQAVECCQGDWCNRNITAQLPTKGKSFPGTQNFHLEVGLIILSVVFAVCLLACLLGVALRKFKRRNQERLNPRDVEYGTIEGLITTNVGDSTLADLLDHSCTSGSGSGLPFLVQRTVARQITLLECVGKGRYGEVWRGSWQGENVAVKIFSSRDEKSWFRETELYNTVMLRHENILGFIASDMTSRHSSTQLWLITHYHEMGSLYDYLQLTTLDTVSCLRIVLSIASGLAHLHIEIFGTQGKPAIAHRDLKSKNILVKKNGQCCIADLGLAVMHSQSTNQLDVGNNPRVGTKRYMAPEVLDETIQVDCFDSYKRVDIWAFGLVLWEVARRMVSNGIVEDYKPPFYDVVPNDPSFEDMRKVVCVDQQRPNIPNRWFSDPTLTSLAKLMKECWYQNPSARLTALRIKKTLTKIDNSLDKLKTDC
How it was run: as §1

[10] = read-out: % Enzyme Activity (relative to DMSO controls) Run 1
[11] = read-out: % Enzyme Activity (relative to DMSO controls) Run 2

T1 sequence (P09769 whole entry): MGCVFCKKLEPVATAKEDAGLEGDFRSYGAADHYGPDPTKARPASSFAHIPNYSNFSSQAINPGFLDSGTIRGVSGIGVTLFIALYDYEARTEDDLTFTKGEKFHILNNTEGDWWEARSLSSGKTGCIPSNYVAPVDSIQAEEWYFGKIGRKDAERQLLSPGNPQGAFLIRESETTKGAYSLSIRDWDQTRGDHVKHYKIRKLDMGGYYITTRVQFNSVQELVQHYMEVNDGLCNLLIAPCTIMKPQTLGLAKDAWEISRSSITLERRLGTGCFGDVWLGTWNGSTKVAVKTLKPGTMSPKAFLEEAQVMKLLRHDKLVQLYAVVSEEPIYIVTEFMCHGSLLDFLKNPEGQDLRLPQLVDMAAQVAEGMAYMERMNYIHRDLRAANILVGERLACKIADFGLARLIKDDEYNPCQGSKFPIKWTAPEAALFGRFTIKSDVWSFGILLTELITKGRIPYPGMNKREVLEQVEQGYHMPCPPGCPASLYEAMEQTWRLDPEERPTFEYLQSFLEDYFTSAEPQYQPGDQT

C=CC(=O)Nc1cccc(Nc2nc(Nc3ccc(OCCOC)c(F)c3)ncc2F)c1 [Compound 2]
inhibition at 3 µM [1]: 59.9% | remaining activity at 3 µM [1, 10]: 39.7% | remaining activity at 3 µM [1, 11]: 40.5% | inhibition at 3 µM [2]: 8.73% | remaining activity at 3 µM [2, 10]: 88% | remaining activity at 3 µM [2, 11]: 94.5% | inhibition at 3 µM [3]: 13.7% | remaining activity at 3 µM [3, 10]: 85.8% | remaining activity at 3 µM [3, 11]: 86.9% | inhibition at 3 µM [4]: -7.18% | remaining activity at 3 µM [4, 10]: 104% | remaining activity at 3 µM [4, 11]: 111% | inhibition at 3 µM [5]: 39.4% | remaining activity at 3 µM [5, 10]: 60.2% | remaining activity at 3 µM [5, 11]: 60.9% | inhibition at 3 µM [6]: 3.11% | remaining activity at 3 µM [6, 10]: 96.4% | remaining activity at 3 µM [6, 11]: 97.4% | inhibition at 3 µM [7]: -6.61% | remaining activity at 3 µM [7, 10]: 107% | remaining activity at 3 µM [7, 11]: 106% | inhibition at 3 µM [8]: -1.3% | remaining activity at 3 µM [8, 10]: 100% | remaining activity at 3 µM [8, 11]: 102% | remaining activity at 3 µM [9, 10]: 385% | remaining activity at 3 µM [9, 11]: 385%
